Test results: US12677832B2, “Oxadiazole compounds for controlling or preventing phytopathogenic fungi” (PI INDUSTRIES LTD., priority 2019, dated 2026)

Key:
Alternaria solani = Alternaria solani (Early Blight of Tomato/Potato) radial growth on potato dextrose agar; type: cell-based; conditions: 168 h, radial growth after seven days compared to untreated control
Colletotrichum capsici = Colletotrichum capsici (Anthracnose) radial growth on potato dextrose agar; type: cell-based; conditions: Colletotrichum truncatum, 168 h, radial growth after seven days compared to untreated control
Pyricularia oryzae = experiment: microbe, parasite or virus in culture; type: cell-based; conditions: 168 h, read-out: control
Phakopsora pachyrhizi = Phakopsora pachyrhizi Test in Soybean (preventive spray); type: in vivo; conditions: preventive spray on Soybean plants, inoculated one day after treatment, disease severity vs untreated control
Procedure: Example 7: Phakopsora pachyrhizi Test in Soybean Compounds were dissolved in 2% dimethyl sulfoxide/acetone and then mixed with water containing an emulsifier to a calibrated spray volume of 50 mL. This 50 mL spray solution was poured into spray bottles for further applications. To test the preventive activity of compounds, healthy young Soybean plants, raised in the greenhouse, were sprayed with the active compound preparation at the stated application rates inside the spray cabinets using hollow cone nozzles. One day after treatment, the plants were inoculated with a spore suspension containing 2×10^5Phakopsora pachyrhizi conidia. The inoculated plants were then kept in a greenhouse chamber at 22-24° C. temperature and 80-90% relative humidity for disease expression. A visual assessment of the compound's performance was carried out by rating the disease severity (0-100% scale) on treated plants 3, 7, 10 and 15 days after application. Efficacy (% control) of the compounds was calculated by comparing the disease rating in the treatment with the one of the untreated control. The sprayed plants were also assessed for plant compatibility by recording symptoms like necrosis, chlorosis and stunting.

Structure (SMILES): Cc1ccccc1OCC(=O)c1ccc(-c2noc(C(F)(F)F)n2)cc1 [Compound 39, 2-(o-tolyloxy)-1-(4-(5-(trifluoromethyl)-1,2,4-oxadiazol-3-yl)phenyl)ethan-1-one]
- inhibition of growth at 300 ppm (Alternaria solani): ≥ 70%

Structure (SMILES): O=C(CNc1cccc(C(F)(F)F)c1)c1ccc(-c2noc(C(F)(F)F)n2)cc1 [Compound 141, 1-(4-(5-(trifluoromethyl)-1,2,4-oxadiazol-3-yl)phenyl)-2-((3-(trifluoromethyl)phenyl)amino)ethan-1-one]
- inhibition of growth at 300 ppm (Colletotrichum capsici): ≥ 70%

Structure (SMILES): O=C(CS(=O)(=O)c1ccncc1)c1ccc(-c2noc(C(F)(F)F)n2)cc1 [Compound 112, 2-(pyridin-4-ylsulfonyl)-1-(4-(5-(trifluoromethyl)-1,2,4-oxadiazol-3-yl)phenyl)ethan-1-one]
- inhibition of growth at 300 ppm (Alternaria solani): ≥ 70%
- inhibition of growth at 300 ppm (Pyricularia oryzae): ≥ 70%

Structure (SMILES): O=C(COc1cccnc1)c1ccc(-c2noc(C(F)(F)F)n2)cc1 [Compound 21, 2-(pyridin-3-yloxy)-1-(4-(5-(trifluoromethyl)-1,2,4-oxadiazol-3-yl)phenyl)ethan-1-one]
- inhibition of growth at 300 ppm (Alternaria solani): ≥ 70%
- pest or weed control at 500 ppm (Phakopsora pachyrhizi): ≥ 70%

Structure (SMILES): Cc1ccc(Cl)cc1OCC(=O)c1ccc(-c2noc(C(F)(F)F)n2)cc1 [Compound 17, 2-(5-chloro-2-methylphenoxy)-1-(4-(5-(trifluoromethyl)-1,2,4-oxadiazol-3-yl)phenyl)ethan-1-one]
- inhibition of growth at 300 ppm (Alternaria solani): ≥ 70%
- pest or weed control at 500 ppm (Phakopsora pachyrhizi): ≥ 70%

Structure (SMILES): Cc1cnc([S+]([O-])CC(=O)c2ccc(-c3noc(C(F)(F)F)n3)cc2)s1 (centres unmarked) [Compound 83, 2-((5-methylthiazol-2-yl)sulfinyl)-1-(4-(5-(trifluoromethyl)-1,2,4-oxadiazol-3-yl)phenyl)ethan-1-one]
- pest or weed control at 500 ppm (Phakopsora pachyrhizi): ≥ 70%
- inhibition of growth at 300 ppm (Pyricularia oryzae): ≥ 70%

Structure (SMILES): CC(C)SCC(=O)c1ccc(-c2noc(C(F)(F)F)n2)cc1 [Compound 69, 2-(isopropylthio)-1-(4-(5-(trifluoromethyl)-1,2,4-oxadiazol-3-yl)phenyl)ethan-1-one]
- inhibition of growth at 300 ppm (Alternaria solani): ≥ 70%
- inhibition of growth at 300 ppm (Pyricularia oryzae): ≥ 70%

Structure (SMILES): O=C(CSc1ccncc1)c1ccc(-c2noc(C(F)(F)F)n2)cc1 [Compound 68, 2-(pyridin-4-ylthio)-1-(4-(5-(trifluoromethyl)-1,2,4-oxadiazol-3-yl)phenyl)ethan-1-one]
- inhibition of growth at 300 ppm (Alternaria solani): ≥ 70%

Structure (SMILES): O=C(CNc1ccc(F)c(F)c1)c1ccc(-c2noc(C(F)(F)F)n2)cc1 [Compound 27, 2-((3,4-difluorophenyl)amino)-1-(4-(5-(trifluoromethyl)-1,2,4-oxadiazol-3-yl)phenyl)ethan-1-one]
- inhibition of growth at 300 ppm (Alternaria solani): ≥ 70%
- pest or weed control at 500 ppm (Phakopsora pachyrhizi): ≥ 70%

Structure (SMILES): Cc1ccccc1SCC(=O)c1ccc(-c2noc(C(F)(F)F)n2)cc1 [Compound 66, 2-(o-tolylthio)-1-(4-(5-(trifluoromethyl)-1,2,4-oxadiazol-3-yl)phenyl)ethan-1-one]
- pest or weed control at 500 ppm (Phakopsora pachyrhizi): ≥ 70%
- inhibition of growth at 300 ppm (Pyricularia oryzae): ≥ 70%

Structure (SMILES): O=C(CS(=O)(=O)c1nccs1)c1ccc(-c2noc(C(F)(F)F)n2)cc1 [Compound 107, 2-(thiazol-2-ylsulfonyl)-1-(4-(5-(trifluoromethyl)-1,2,4-oxadiazol-3-yl)phenyl)ethan-1-one]
- inhibition of growth at 300 ppm (Colletotrichum capsici): ≥ 70%

Structure (SMILES): O=C(C[S+]([O-])C1CCCC1)c1ccc(-c2noc(C(F)(F)F)n2)cn1 (centres unmarked) [Compound 133, 2-(cyclopentylsulfinyl)-1-(5-(5-(trifluoromethyl)-1,2,4-oxadiazol-3-yl)pyridin-2-yl)ethan-1-one]
- inhibition of growth at 300 ppm (Alternaria solani): ≥ 70%
- inhibition of growth at 300 ppm (Pyricularia oryzae): ≥ 70%

Structure (SMILES): O=C(COc1ccc(Br)nc1)c1ccc(-c2noc(C(F)(F)F)n2)cc1 [Compound 49, 2-((6-bromopyridin-3-yl)oxy)-1-(4-(5-(trifluoromethyl)-1,2,4-oxadiazol-3-yl)phenyl)ethan-1-one]
- pest or weed control at 500 ppm (Phakopsora pachyrhizi): ≥ 70%
- inhibition of growth at 300 ppm (Pyricularia oryzae): ≥ 70%

Structure (SMILES): O=C(CSc1ncn[nH]1)c1ccc(-c2noc(C(F)(F)F)n2)cc1 [Compound 149, 2-((1H-1,2,4-triazol-5-yl)thio)-1-(4-(5-(trifluoromethyl)-1,2,4-oxadiazol-3-yl)phenyl)ethan-1-one]
- inhibition of growth at 300 ppm (Colletotrichum capsici): ≥ 70%
- inhibition of growth at 300 ppm (Alternaria solani): ≥ 70%
- inhibition of growth at 300 ppm (Pyricularia oryzae): ≥ 70%

Structure (SMILES): CC(C)(C)SCC(=O)c1ccc(-c2noc(C(F)(F)F)n2)cc1 [Compound 70, 2-(tert-butylthio)-1-(4-(5-(trifluoromethyl)-1,2,4-oxadiazol-3-yl)phenyl)ethan-1-one]
- inhibition of growth at 300 ppm (Pyricularia oryzae): ≥ 70%

Structure (SMILES): Cc1ccccc1NCC(=O)c1ccc(-c2noc(C(F)(F)F)n2)cc1 [Compound 146, 2-(o-tolylamino)-1-(4-(5-(trifluoromethyl)-1,2,4-oxadiazol-3-yl)phenyl)ethan-1-one]
- inhibition of growth at 300 ppm (Colletotrichum capsici): ≥ 70%

Structure (SMILES): O=C(COc1cc(Cl)cc(Cl)c1)c1ccc(-c2noc(C(F)(F)F)n2)cc1 [Compound 15, 2-(3,5-dichlorophenoxy)-1-(4-(5-(trifluoromethyl)-1,2,4-oxadiazol-3-yl)phenyl)ethan-1-one]
- inhibition of growth at 300 ppm (Colletotrichum capsici): ≥ 70%
- pest or weed control at 500 ppm (Phakopsora pachyrhizi): ≥ 70%

Structure (SMILES): O=C(COc1ccc(F)cc1F)c1ccc(-c2noc(C(F)(F)F)n2)cc1 [Compound 18, 2-(2,4-difluorophenoxy)-1-(4-(5-(trifluoromethyl)-1,2,4-oxadiazol-3-yl)phenyl)ethan-1-one]
- inhibition of growth at 300 ppm (Alternaria solani): ≥ 70%
- pest or weed control at 500 ppm (Phakopsora pachyrhizi): ≥ 70%

Structure (SMILES): CC(C)(C)[S+]([O-])CC(=O)c1ccc(-c2noc(C(F)(F)F)n2)cc1 (centres unmarked) [Compound 91, 2-(tert-butylsulfinyl)-1-(4-(5-(trifluoromethyl)-1,2,4-oxadiazol-3-yl)phenyl)ethan-1-one]
- inhibition of growth at 300 ppm (Alternaria solani): ≥ 70%
- inhibition of growth at 300 ppm (Pyricularia oryzae): ≥ 70%

Structure (SMILES): COc1ccc([S+]([O-])CC(=O)c2ccc(-c3noc(C(F)(F)F)n3)cn2)cc1 (centres unmarked) [Compound 129, 2-((4-methoxyphenyl)sulfinyl)-1-(5-(5-(trifluoromethyl)-1,2,4-oxadiazol-3-yl)pyridin-2-yl)ethan-1-one]
- inhibition of growth at 300 ppm (Colletotrichum capsici): ≥ 70%

Structure (SMILES): COc1ccc(NCC(=O)c2ccc(-c3noc(C(F)(F)F)n3)cc2)cc1 [Compound 145, 2-((4-methoxyphenyl)amino)-1-(4-(5-(trifluoromethyl)-1,2,4-oxadiazol-3-yl)phenyl)ethan-1-one]
- inhibition of growth at 300 ppm (Colletotrichum capsici): ≥ 70%
- inhibition of growth at 300 ppm (Pyricularia oryzae): ≥ 70%

Structure (SMILES): C=CCSCC(=O)c1ccc(-c2noc(C(F)(F)F)n2)cc1 [Compound 61, 2-(allylthio)-1-(4-(5-(trifluoromethyl)-1,2,4-oxadiazol-3-yl)phenyl)ethan-1-one]
- inhibition of growth at 300 ppm (Alternaria solani): ≥ 70%

Structure (SMILES): O=C(C[S+]([O-])c1cccc(F)c1)c1ccc(-c2noc(C(F)(F)F)n2)cn1 (centres unmarked) [Compound 128, 2-((3-fluorophenyl)sulfinyl)-1-(5-(5-(trifluoromethyl)-1,2,4-oxadiazol-3-yl)pyridin-2-yl)ethan-1-one]
- inhibition of growth at 300 ppm (Alternaria solani): ≥ 70%
- inhibition of growth at 300 ppm (Pyricularia oryzae): ≥ 70%

Structure (SMILES): O=C(CSCc1ccccc1)c1ccc(-c2noc(C(F)(F)F)n2)cn1 [Compound 118, 2-(benzylthio)-1-(5-(5-(trifluoromethyl)-1,2,4-oxadiazol-3-yl)pyridin-2-yl)ethan-1-one]
- inhibition of growth at 300 ppm (Pyricularia oryzae): ≥ 70%

Structure (SMILES): Cc1cccc(NCC(=O)c2ccc(-c3noc(C(F)(F)F)n3)cc2)c1 [Compound 144, 2-(m-tolylamino)-1-(4-(5-(trifluoromethyl)-1,2,4-oxadiazol-3-yl)phenyl)ethan-1-one]
- inhibition of growth at 300 ppm (Colletotrichum capsici): ≥ 70%

Structure (SMILES): O=C(C[S+]([O-])Cc1ccccc1)c1ccc(-c2noc(C(F)(F)F)n2)cc1 (centres unmarked) [Compound 80, 2-(benzylsulfinyl)-1-(4-(5-(trifluoromethyl)-1,2,4-oxadiazol-3-yl)phenyl)ethan-1-one]
- inhibition of growth at 300 ppm (Alternaria solani): ≥ 70%
- inhibition of growth at 300 ppm (Pyricularia oryzae): ≥ 70%

Structure (SMILES): O=C(CSc1nccs1)c1ccc(-c2noc(C(F)(F)F)n2)cc1 [Compound 73, 2-(thiazol-2-ylthio)-1-(4-(5-(trifluoromethyl)-1,2,4-oxadiazol-3-yl)phenyl)ethan-1-one]
- inhibition of growth at 300 ppm (Pyricularia oryzae): ≥ 70%

Structure (SMILES): CN1CCN(CC(=O)c2ccc(-c3noc(C(F)(F)F)n3)cc2)CC1 [Compound 135, 2-(4-methylpiperazin-1-yl)-1-(4-(5-(trifluoromethyl)-1,2,4-oxadiazol-3-yl)phenyl)ethan-1-one]
- inhibition of growth at 300 ppm (Colletotrichum capsici): ≥ 70%
- inhibition of growth at 300 ppm (Alternaria solani): ≥ 70%
- pest or weed control at 500 ppm (Phakopsora pachyrhizi): ≥ 70%

Structure (SMILES): O=C(C[S+]([O-])c1c(Cl)cccc1Cl)c1ccc(-c2noc(C(F)(F)F)n2)cn1 (centres unmarked) [Compound 132, 2-((2,6-dichlorophenyl)sulfinyl)-1-(5-(5-(trifluoromethyl)-1,2,4-oxadiazol-3-yl)pyridin-2-yl)ethan-1-one]
- inhibition of growth at 300 ppm (Alternaria solani): ≥ 70%

Structure (SMILES): Cc1nnc(SCC(=O)c2ccc(-c3noc(C(F)(F)F)n3)cc2)o1 [Compound 150, 2-((5-methyl-1,3,4-oxadiazol-2-yl)thio)-1-(4-(5-(trifluoromethyl)-1,2,4-oxadiazol-3-yl)phenyl)ethan-1-one]
- inhibition of growth at 300 ppm (Alternaria solani): ≥ 70%
- inhibition of growth at 300 ppm (Pyricularia oryzae): ≥ 70%

Structure (SMILES): Cc1cccc(S(=O)(=O)CC(=O)c2ccc(-c3noc(C(F)(F)F)n3)cc2)c1 [Compound 110, 2-(m-tolylsulfonyl)-1-(4-(5-(trifluoromethyl)-1,2,4-oxadiazol-3-yl)phenyl)ethan-1-one]
- inhibition of growth at 300 ppm (Pyricularia oryzae): ≥ 70%

Structure (SMILES): O=C(CSC1CCCC1)c1ccc(-c2noc(C(F)(F)F)n2)cn1 [Compound 119, 2-(cyclopentylthio)-1-(5-(5-(trifluoromethyl)-1,2,4-oxadiazol-3-yl)pyridin-2-yl)ethan-1-one]
- inhibition of growth at 300 ppm (Alternaria solani): ≥ 70%
- inhibition of growth at 300 ppm (Pyricularia oryzae): ≥ 70%
